Patent EP3720857B1, “2-OXO-5H-CHROMENO[4,3-B]PYRIDINES FOR USE IN THE TREATMENT OF HEPATITIS B” (Galapagos NV, priority 2017, dated 2019)

Tests used:
[1] = tested on: hepatitis virus B (HBV) infection; assay: HepG2 NTCP assay (HBcAg staining as marker of HBV infection); assay type: cell-based; conditions: HepG2-NTCP cells infected with HBV, HBV core antigen (HBcAg) as marker of infection
Procedure, shortened: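 HepG2-NTCP cells were infected with HBV (4% PEG, 1% DMSO) in the presence of compound overnight, then re-dosed and incubated 5 days at 37 °C. HBcAg immunofluorescence was imaged, with DAPI nuclei count taken as toxicity. Ten-point 1/3 dilutions gave % inhibition against 0.2% DMSO vehicle and 100 nM Myrcludex B, with dose-response curves fitted.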

[2] = tested on: hepatitis virus B (HBV) infection; assay: iCell hepatocytes assay, delayed assay (compounds added three days after HBV infection); assay type: cell-based; conditions: for EC50: Hepatitis B virus, Hepatocyte, HBs ELISA
Protocol: The principle of the iCell hepatocyte 2.0 96 well assay is to evaluate the inhibitory effect of a test compound on hepatitis virus B (HBV) infection. In this assays the HBV core antigen (HBcAg) and/or extracellular antigen (HBeAg) and/or surface antigen (HBsAg) are used as a marker for HBV infection. Nuclei count may be used as an indication for compound toxicity.
In the standard assay set-up HBV infection and compound addition are performed on the same day, in the delayed assay the compounds are added three days after HBV infection. iCell hepatocytes 2.0 are human hepatocytes derived from induced pluripotent stem cells (iPSc) purchased from Cellular Dynamics international (CDI, R1027).
At day 0, iCell hepatocytes 2.0 (CDI, R1027) are thawed and seeded in collagen I coated 96well plates at 112 000c/well (100µL) in plating medium (RPMI supplemented with B27 supplement, 20 ng/mL recombinant human oncostatin M (OSM), 25µg/mL gentamicin, 0.1µM Dexamethasone and iCell medium supplement provided by CDI). Plates are incubated at 37°C, 5% CO2 and daily refreshed with plating medium for the following four days.
On day 5 and 6, plates are refreshed with 100µL maintenance medium (RPMI supplemented with B27 supplement, 25µg/mL gentamicin, 0.1µM Dexamethasone, and iCell medium supplement provided by CDI) and incubated at 37°C, 5% CO2 until the following day.
On day 7 (day of infection), the maintenance medium is removed from the assay plates and cells are infected with 50 µL of HBV mix (HBV virus, 4% PEG, 0% or 2% DMSO in maintenance medium). The assay plates were incubated overnight at 37°C, 5% CO2.
At day 1 post infection (day8), 50µL of HBV mix is removed from the assay plates and refreshed with 100 µL of maintenance medium. The assay plates are incubated at 37°C, 5% CO2 for three days.
At day 4 post infection (day 11) and day 7 post infection (day14), the supernatant is removed and 100 µL of compound series diluted 1/500 in maintenance medium is added to the assay plates (8 point serial dilution using 1/3 dilution steps in 100% DMSO or 8 point serial dilution using ¼ dilution steps, normalized for 0.2% DMSO. The assay plates were incubated at 37°C, 5% CO2 for three days.
At day 10 post infection (day 17), 100µL of supernatant is harvested and frozen to -20°C. The cells are fixed with 50 µL of 3.7% formaldehyde and incubated for 30 min at room temperature. After fixation, cells are washed four times with phosphate buffer saline (PBS) with the plate washer (Select 405, microplate washer, Biotek) and subjected to HBc staining. harvested supernatant is used for HBe and/or HBs ELISA.
The assay plates are blocked with blocking buffer (2% FBS, 3% BSA, 0.2% TritonX100 in PBS) for 1 h at room temperature.
After blocking, the assay plates are tapped manually and incubated with 50 µL diluted primary antibody (1/700 Rabbit-anti-HBc Ag, Dako, B0586 or 1/350 Rabbit-anti-HBc Ag, Invitrogen, PA516368) in blocking buffer and incubated for 90 min at room temperature.
After 4 washes of PBST (1XPBS + 0.05% Tween) with the plate washer, the assay plates are incubated with 100 µL of secondary antibody (Donkey-anti-rabbit Alexa 488, Lifetechnologies, A21206) 1/500 diluted in blocking buffer and incubated for 60 min at room temperature in the dark, then washed 4 times with PBST on the plate washer and incubated with 100µL of DAPI (Sigma D9542, stock 5mg/mL) 1/10000 diluted in PBS for 15-30 min at room temperature in the dark.
Finally, the assay plates are read out on a InCell Analyzer 2200 (GE Healthcare). […]
After blocking, 30 µL of sample and HBe Ag standard (recombinant hepatitis B virus E antigen protein, 4mg/mL, Abcam, ab91273) are added to the plate. The HBe Ag standard is 1/3 diluted in blocking buffer starting from 1.25µg/mL. A vehicle control is also included. The plate is incubated for 30 min at room temperature.
After sample incubation, the plates are washed 4 times with PBST on a platewasher followed by 2 washed of PBS. […]

IC50 [1] [nM]	SMILES	Delayed assay HBs ELISA % inhibition [2]	EC50 [2] [nM]
0.001 to 1	COCCCOc1cc2c(cc1Cl)-c1c(cc(C(=O)O)c(=O)n1C1CC1)C(C(C)C)O2 (stereo not drawn) [Compound 4, 9-chloro-1-cyclopropyl-5-isopropyl-8-(3-methoxypropoxy) -2-oxo-5H-chromeno[4,3-b]pyridine-3-carboxylic acid]	++ (50-75%)	0.001 to 20
0.001 to 1	COCCCOc1cc2c(cc1Cl)-c1c(cc(C(=O)O)c(=O)n1C1CC1)C(C1(C)COC1)O2 (stereo not drawn) [Compound 2, 9-chloro-1-cyclopropyl-8-(3-methoxypropoxy)-5-(3-methyloxetan-3-yl)-2-oxo-5H-chromeno[4,3-b]pyridine-3-carboxylic acid]	++ (50-75%)	0.001 to 20
1 to 20	COc1cc2c(cc1OC)-c1c(cc(C(=O)O)c(=O)n1C1CC1)C(C(C)C)O2 (stereo not drawn) [Compound 3, 1-cyclopropyl-5-isopropyl-8,9-dimethoxy-2-oxo-5H-chromeno[4,3-b]pyridine-3-carboxylic acid]	+++ (75-100%)	> 50
